For one assay, the target named is JH2 domain of human Tyk2 (Homo sapiens (Human), UniProt P29597). Nature of the assay: JH2 Biochemical Assay (TR-FRET probe displacement). The class given is binding. For orientation: TR-FRET usually uses a lanthanide donor and a delayed reading to cut background.
In a further assay the target is Tyk2 (Homo sapiens (Human), UniProt P29597). Briefly: pSTAT4 Cell Assay (MSD, NK92 cells). The class given is cell-based.
[1] abbreviates: JH2 domain of human Tyk2, TR-FRET probe displacement.
The mark [2] stands for this setting: TR-FRET probe displacement, JH2 domain.
The mark [3] stands for this setting: TR-FRET probe displacement, JH2 domain of human Tyk2.

Read-outs that look alike come from different tables or passages of the source.

Chain of Tyk2 (P29597 whole entry, the tested form may be a part): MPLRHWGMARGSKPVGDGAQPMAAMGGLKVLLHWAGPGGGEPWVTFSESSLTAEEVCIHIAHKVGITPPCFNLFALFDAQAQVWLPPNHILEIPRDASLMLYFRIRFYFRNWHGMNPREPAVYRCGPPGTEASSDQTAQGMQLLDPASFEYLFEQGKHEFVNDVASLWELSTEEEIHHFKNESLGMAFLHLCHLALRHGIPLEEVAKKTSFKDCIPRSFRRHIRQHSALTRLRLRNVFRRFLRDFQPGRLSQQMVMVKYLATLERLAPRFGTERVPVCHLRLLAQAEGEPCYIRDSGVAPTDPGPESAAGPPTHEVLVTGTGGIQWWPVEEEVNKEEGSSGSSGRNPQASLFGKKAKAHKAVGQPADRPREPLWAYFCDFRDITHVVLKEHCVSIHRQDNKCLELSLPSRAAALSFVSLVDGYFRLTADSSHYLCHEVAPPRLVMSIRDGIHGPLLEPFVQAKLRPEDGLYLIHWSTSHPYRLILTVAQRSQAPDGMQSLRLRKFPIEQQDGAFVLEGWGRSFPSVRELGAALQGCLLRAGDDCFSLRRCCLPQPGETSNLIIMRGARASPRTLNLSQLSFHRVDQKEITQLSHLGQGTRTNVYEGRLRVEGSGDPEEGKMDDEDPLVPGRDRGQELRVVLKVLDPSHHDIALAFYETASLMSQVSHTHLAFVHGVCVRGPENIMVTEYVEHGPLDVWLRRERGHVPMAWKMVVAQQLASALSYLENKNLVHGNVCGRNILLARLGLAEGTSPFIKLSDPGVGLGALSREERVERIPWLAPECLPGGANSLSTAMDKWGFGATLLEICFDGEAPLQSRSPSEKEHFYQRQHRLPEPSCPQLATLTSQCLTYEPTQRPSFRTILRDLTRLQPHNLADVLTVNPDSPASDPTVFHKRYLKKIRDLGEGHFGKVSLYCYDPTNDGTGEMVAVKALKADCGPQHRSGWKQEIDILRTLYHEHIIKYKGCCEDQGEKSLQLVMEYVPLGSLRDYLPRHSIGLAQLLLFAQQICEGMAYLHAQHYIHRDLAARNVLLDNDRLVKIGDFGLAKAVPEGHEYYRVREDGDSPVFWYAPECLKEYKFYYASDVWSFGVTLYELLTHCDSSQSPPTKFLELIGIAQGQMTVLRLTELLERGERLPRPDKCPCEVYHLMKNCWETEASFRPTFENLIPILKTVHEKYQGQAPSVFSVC
Chain of JH2 domain of human Tyk2 (P29597 575-876): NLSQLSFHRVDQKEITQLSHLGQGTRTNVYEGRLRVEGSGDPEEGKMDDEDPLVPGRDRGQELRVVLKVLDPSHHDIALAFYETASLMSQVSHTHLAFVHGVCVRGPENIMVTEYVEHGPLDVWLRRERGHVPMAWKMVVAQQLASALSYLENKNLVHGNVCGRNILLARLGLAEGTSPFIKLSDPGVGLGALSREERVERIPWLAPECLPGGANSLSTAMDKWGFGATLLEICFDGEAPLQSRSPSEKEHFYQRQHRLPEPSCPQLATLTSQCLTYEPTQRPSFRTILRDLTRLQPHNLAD

A word on the IC50: it is the concentration needed to halve the response being measured. `CC(=O)Nc1cc(Nc2cc(C)nc(C(C)(F)F)n2)c(-c2ccccn2)cn1` [Example 591, N-(4′-((2-(1,1-difluoroethyl)-6-methylpyrimidin-4-yl)amino)-[2,3′-bipyridin]-6′-yl)acetamide]: the half-inhibitory concentration (IC50) on JH2 domain of human Tyk2 (setting [1]) and at Tyk2 (MSD) was no more than 10 nM each time.

As for `CCc1cc(Nc2cc(NC(C)=O)ncc2-c2ccc(C(C)(C)O)cn2)nc(C(C)(F)F)n1` [Example 839, N-(4′-((2-(1,1-difluoroethyl)-6-ethylpyrimidin-4-yl)amino)-5-(2-hydroxypropan-2-yl)-[2,3′-bipyridin]-6′-yl)acetamide], the IC50 on JH2 domain of human Tyk2 (setting [2]) and on Tyk2 was no more than 10 nM throughout.

Turning to `CC(=O)Nc1cc(Nc2cc(C)nc(C(C)(F)F)n2)c(OC[C@H]2C[C@H]2CF)cn1` (racemic) [Example 428, Cis-rac-N-(4-((2-(1,1-difluoroethyl)-6-methylpyrimidin-4-yl)amino)-5-((2-(fluoromethyl)cyclopropyl)methoxy)pyridin-2-yl)acetamide], the figures for the 50% inhibitory concentration (IC50) at JH2 domain of human Tyk2 (setting [1]) and on Tyk2 (MSD) were no more than 10 nM and 10 to 100 nM, respectively.

Consider `CC(=O)Nc1cc(Nc2cc(C)nc(C(C)(F)F)n2)c(-c2cc(CN(C)C)n(C)n2)cn1` [Example 287, N-(4-((2-(1,1-difluoroethyl)-6-methylpyrimidin-4-yl)amino)-5-(5-((dimethylamino)methyl)-1-methyl-1H-pyrazol-3-yl)pyridin-2-yl)acetamide], for which the half-inhibitory concentration (IC50) at JH2 domain of human Tyk2 (setting [3]) and against Tyk2 (MSD) was no more than 10 nM throughout.

On to `CC(=O)Nc1cc(Nc2cc(C)nc(C(C)(F)F)n2)c(OC2COC2)cn1` [Example 86, N-(4-((2-(1,1-difluoroethyl)-6-methylpyrimidin-4-yl)amino)-5-(oxetan-3-yloxy)pyridin-2-yl)acetamide], for which the IC50 at JH2 domain of human Tyk2 (setting [3]) was no more than 10 nM; against Tyk2 (MSD), 10 to 100 nM.

For the compound `COc1cnc(NC(C)=O)cc1Nc1cc(-c2ccc(C#N)cc2)nc(C(C)(F)F)n1` [Example 393, N-(4-((6-(4-cyanophenyl)-2-(1,1-difluoroethyl)pyrimidin-4-yl)amino)-5-methoxypyridin-2-yl)acetamide], the IC50 is no more than 10 nM at JH2 domain of human Tyk2 (setting [1]) and 10 to 100 nM at Tyk2 (MSD).

On to `CC(=O)Nc1cc(Nc2cc(C)nc(C(C)(F)F)n2)c(OC[C@]23CC[C@@H](CC2)O3)cn1` [Example 423, N-(5-(((1r,4r)-7-oxabicyclo[2.2.1]heptan-1-yl)methoxy)-4-((2-(1,1-difluoroethyl)-6-methylpyrimidin-4-yl)amino)pyridin-2-yl)acetamide], for which the 50% inhibitory concentration (IC50) at JH2 domain of human Tyk2 (setting [1]) was no more than 10 nM; on Tyk2 (MSD) it was 10 to 100 nM.

For `CC(=O)Nc1cc(Nc2cc(C)nc(C(C)(F)F)n2)c(-c2cnc(CN3CCN(C)CC3)cn2)cn1` [Example 792, N-(4-((2-(1,1-difluoroethyl)-6-methylpyrimidin-4-yl)amino)-5-(5-((4-methylpiperazin-1-yl)methyl)pyrazin-2-yl)pyridin-2-yl)acetamide], the figures for the IC50 on JH2 domain of human Tyk2 (setting [2]) and against Tyk2 were no more than 10 nM and 10 to 100 nM, respectively.

Turning to `CC(=O)Nc1cc(Nc2ccnc(C(C)(F)F)n2)c(-c2cnc(N3C[C@H]4C[C@@H]3CO4)cn2)cn1` [Example 871, N-(5-(5-((1R,4R)-2-oxa-5-azabicyclo[2.2.1]heptan-5-yl)pyrazin-2-yl)-4-((2-(1,1-difluoroethyl)pyrimidin-4-yl)amino)pyridin-2-yl)acetamide], the IC50 is no more than 10 nM at JH2 domain of human Tyk2 (setting [2]) and 10 to 100 nM against Tyk2.

For the compound `CCc1nnc(-c2cnc(NC(C)=O)cc2Nc2ccnc(C(C)(F)F)n2)s1` [Example 714, N-(4-((2-(1,1-difluoroethyl)pyrimidin-4-yl)amino)-5-(5-ethyl-1,3,4-thiadiazol-2-yl)pyridin-2-yl)acetamide], the half-maximal inhibitory concentration (IC50) on JH2 domain of human Tyk2 (setting [1]) and on Tyk2 (MSD) was no more than 10 nM in each case.

On to `CC(=O)Nc1cc(Nc2cccc(C3CCOC3)n2)c(-c2ccn(C)n2)cn1` (stereo not drawn) [Example 208, N-(5-(1-methyl-1H-pyrazol-3-yl)-4-((6-(tetrahydrofuran-3-yl)pyridin-2-yl)amino)pyridin-2-yl)acetamide], for which the 50% inhibitory concentration (IC50) on JH2 domain of human Tyk2 (setting [3]) was no more than 10 nM; against Tyk2 (MSD), 10 to 100 nM.

As to `CC(=O)Nc1cc(Nc2cc(C)nc(C34COC(C3)C4)n2)c(-c2ccc(C(C)F)cn2)cn1` (stereo not drawn) [Example 577, N-(4′-((2-(2-oxabicyclo[2.1.1]hexan-4-yl)-6-methylpyrimidin-4-yl)amino)-5-(1-fluoroethyl)-[2,3′-bipyridin]-6′-yl)acetamide], the 50% inhibitory concentration (IC50) at JH2 domain of human Tyk2 (setting [1]) and on Tyk2 (MSD) was no more than 10 nM each time.

Consider `CC(=O)Nc1cc(Nc2cc(C)nc(C(C)(F)F)n2)c(-c2cccc([C@@H]3CN(C)CCO3)n2)cn1` (single isomer, unassigned) [Example 641, (S)-N-(4′-((2-(1,1-difluoroethyl)-6-methylpyrimidin-4-yl)amino)-6-(4-methylmorpholin-2-yl)-[2,3′-bipyridin]-6′-yl)acetamide or (R)-N-(4′-((2-(1,1-difluoroethyl)-6-methylpyrimidin-4-yl)amino)-6-(4-methylmorpholin-2-yl)-[2,3′-bipyridin]-6′-yl)acetamide], for which the IC50 at JH2 domain of human Tyk2 (setting [1]) and against Tyk2 (MSD) was no more than 10 nM throughout.

Regarding `CC(=O)Nc1cc(Nc2ccnc(C(C)(F)F)n2)c(-c2nnc(N3CCOCC3)s2)cn1` [Example 255, N-(4-((2-(1,1-difluoroethyl)pyrimidin-4-yl)amino)-5-(5-morpholino-1,3,4-thiadiazol-2-yl)pyridin-2-yl)acetamide], the IC50 at JH2 domain of human Tyk2 (setting [3]) and on Tyk2 (MSD) was no more than 10 nM in each case.

Take `COc1cc(-c2cnc(NC(C)=O)cc2Nc2cc(C)nc(C(C)(F)F)n2)nc(C)n1` [Example 155, N-(4-((2-(1,1-difluoroethyl)-6-methylpyrimidin-4-yl)amino)-5-(6-methoxy-2-methylpyrimidin-4-yl)pyridin-2-yl)acetamide]: the values for the IC50 on JH2 domain of human Tyk2 (setting [3]) and at Tyk2 (MSD) were no more than 10 nM and 10 to 100 nM, respectively.

Turning to `COc1cnc(NC(C)=O)cc1Nc1cc(-c2cnn(C3CCC3)c2)nc(C(C)(F)F)n1` [Example 374, N-(4-((6-(1-cyclobutyl-1H-pyrazol-4-yl)-2-(1,1-difluoroethyl)pyrimidin-4-yl)amino)-5-methoxypyridin-2-yl)acetamide], the IC50 at JH2 domain of human Tyk2 (setting [1]) lay within 10 to 100 nM; at Tyk2 (MSD) it was 100 to 1000 nM.

For the compound `CCOc1cnc(NC(C)=O)cc1Nc1nc(C(C)(F)F)ncc1F` [Example 34, N-(4-((2-(1,1-difluoroethyl)-5-fluoropyrimidin-4-yl)amino)-5-ethoxypyridin-2-yl)acetamide], the figures for the IC50 at JH2 domain of human Tyk2 (setting [3]) and on Tyk2 (MSD) were 10 to 100 nM and no less than 1000 nM, respectively.

On to `COC1(C)CN(Cc2ccc(-c3cnc(NC(C)=O)cc3Nc3ccnc(C(C)(F)F)n3)nc2)C1` [Example 882, N-(4′-((2-(1,1-difluoroethyl)pyrimidin-4-yl)amino)-5-((3-methoxy-3-methylazetidin-1-yl)methyl)-[2,3′-bipyridin]-6′-yl)acetamide], for which the 50% inhibitory concentration (IC50) on JH2 domain of human Tyk2 (setting [2]) and against Tyk2 was no more than 10 nM each time.

With `CC(=O)Nc1cc(Nc2cc(C)nc(C(C)(F)F)n2)c(-c2nc3n(n2)CCN(C)C3)cn1` [Example 759, N-(4-((2-(1,1-difluoroethyl)-6-methylpyrimidin-4-yl)amino)-5-(7-methyl-5,6,7,8-tetrahydro[1,2,4]triazolo[1,5-a]pyrazin-2-yl)pyridin-2-yl)acetamide], the half-maximal inhibitory concentration (IC50) was no more than 10 nM at JH2 domain of human Tyk2 (setting [2]) and 10 to 100 nM at Tyk2.

Regarding `CCOc1cnc(NC(C)=O)cc1Nc1cc(-c2cncc(OC)c2)nc(C(C)(F)F)n1` [Example 370, N-(4-((2-(1,1-difluoroethyl)-6-(5-methoxypyridin-3-yl)pyrimidin-4-yl)amino)-5-ethoxypyridin-2-yl)acetamide], the half-maximal inhibitory concentration (IC50) at JH2 domain of human Tyk2 (setting [1]) is no more than 10 nM; against Tyk2 (MSD), 10 to 100 nM.

With `CC(=O)Nc1cc(Nc2cc(C)nc(C(C)(F)F)n2)c(-c2cc(C(C)(C)O)n(C)n2)cn1` [Example 272, N-(4-((2-(1,1-difluoroethyl)-6-methylpyrimidin-4-yl)amino)-5-(5-(2-hydroxypropan-2-yl)-1-methyl-1H-pyrazol-3-yl)pyridin-2-yl)acetamide], the IC50 at JH2 domain of human Tyk2 (setting [3]) and at Tyk2 (MSD) was no more than 10 nM throughout.

For `COCCOc1cnc(NC(C)=O)cc1Nc1cc(C)nc(C(C)CF)n1` (stereo not drawn) [Example 82, N-(4-((2-(1-fluoropropan-2-yl)-6-methylpyrimidin-4-yl)amino)-5-(2-methoxyethoxy)pyridin-2-yl)acetamide], the values for the IC50 on JH2 domain of human Tyk2 (setting [3]) and against Tyk2 (MSD) were no more than 10 nM and 10 to 100 nM, respectively.

With `CC(=O)Nc1cc(Nc2cc(C)nc(C(C)(F)F)n2)c(OCc2cccnc2C)cn1` [Example 469, N-(4-((2-(1,1-difluoroethyl)-6-methylpyrimidin-4-yl)amino)-5-((2-methylpyridin-3-yl)methoxy)pyridin-2-yl)acetamide], the IC50 on JH2 domain of human Tyk2 (setting [1]) was no more than 10 nM; at Tyk2 (MSD), 100 to 1000 nM.

`CC(=O)Nc1cc(Nc2cc(C)nc(C(C)(F)F)n2)c(-c2cn3c(n2)CN(C)CC3)cn1` [Example 239, N-(4-((2-(1,1-difluoroethyl)-6-methylpyrimidin-4-yl)amino)-5-(7-methyl-5,6,7,8-tetrahydroimidazo[1,2-a]pyrazin-2-yl)pyridin-2-yl)acetamide]: the half-maximal inhibitory concentration (IC50) at JH2 domain of human Tyk2 (setting [3]) and at Tyk2 (MSD) was no more than 10 nM throughout.

In the case of `CC(=O)Nc1cc(Nc2ccnc(C(C)(F)F)n2)c(-c2cncc(C#N)n2)cn1` [Example 766, N-(5-(6-cyanopyrazin-2-yl)-4-((2-(1,1-difluoroethyl)pyrimidin-4-yl)amino)pyridin-2-yl)acetamide], the 50% inhibitory concentration (IC50) at JH2 domain of human Tyk2 (setting [2]) is no more than 10 nM; on Tyk2 it was 100 to 1000 nM.

As for `CCOc1cnc(NC(C)=O)cc1Nc1cc(-c2cccnc2)nc(C(C)(F)F)n1` [Example 96, N-(4-((2-(1,1-difluoroethyl)-6-(pyridin-3-yl)pyrimidin-4-yl)amino)-5-ethoxypyridin-2-yl)acetamide], the IC50 at JH2 domain of human Tyk2 (setting [3]) is no more than 10 nM; at Tyk2 (MSD) it was 10 to 100 nM.

In the case of `COc1nccc(-c2cnc(NC(C)=O)cc2Nc2ccnc(C(C)(C)F)n2)n1` [Example 180, N-(4-((2-(2-fluoropropan-2-yl)pyrimidin-4-yl)amino)-5-(2-methoxypyrimidin-4-yl)pyridin-2-yl)acetamide], the 50% inhibitory concentration (IC50) at JH2 domain of human Tyk2 (setting [3]) and on Tyk2 (MSD) was no more than 10 nM each time.

The values are drawn from US20260028365A1 (BIOGEN MA INC., priority 2022, published 2026).
